Publication PMC10487658, “Identification and Characterization of RK22, a Novel Antimicrobial Peptide from Hirudinaria manillensis against Methicillin Resistant Staphylococcus aureus” (International Journal of Molecular Sciences, 2023)
Where two headings read alike, the source gives them in different places. No end group written: not given here.

Legend:
C57BL/6 mice = assay type: in vivo, mouse; conditions: male C57BL/6 mice, 96 h; for survival: n = 8
Method: Male C57BL/6 mice (6–8 weeks of age) were randomly divided into three groups of eight mice per group. Either normal saline or RK22 (20 and 40 mg/kg) was injected intravenously via the tail vein. […] For histopathological analysis, sections of lung, liver, spleen, and kidney were fixed with 4% paraformaldehyde, embedded in paraffin wax, and stained with hematoxylin and eosin (H&E).
Figure S2. In vivo acute toxicity of RK22. Male C57BL/6 mice (6–8 weeks of age, n = 8 /group) were injected intravenously via the tail vein with saline or RK22 (20 and 40 mg/kg). Mice were observed for survival status within 96 h of the injection (A) and blood was collected via retro-orbital bleeding for routine blood analysis (B-E). The sections of lung, liver, spleen and kidney were stained […]
(1 picture or pasted object on this page, not shown here)

P. aeruginosa, ATCC9027 = assay type: cell-based, Pseudomonas aeruginosa; conditions: P. aeruginosa ATCC9027 in Table 3; RPMI 1640, 37 °C, 12–16 h, absorbance at 600 nm
HEK293T cells = assay: Cytotoxicity assay (CCK8); assay type: cell-based; conditions: up to 400 μg/mL, 24 h, CCK8, absorbance 450 nm, 3 independent experiments
Method: In the cytotoxicity assay, HEK293T cells were cultured with Dulbecco’s Modified Eagle Medium (DMEM) (Corning, New York, NY, USA) consisting of 10% fetal bovine serum (FBS, Corning, New York, NY, USA) and 1% penicillin-streptomycin liquid (Solarbio, Beijing, China). After digestion using trypsin (Gibco, New York, NY, USA), the cell suspension (100 μL, 1 × 10^5 cells/mL, […]) was inoculated into each well of a 96-well plate. Once the cells were completely adherent, the supernatant was discarded, and fresh medium with or without 100 μL of RK22 (final concentration 6.25–400 μg/mL) was added to the 96-well plates. […] The plate was then incubated at 37 °C for an additional 1–4 h, with absorbance then measured at 450 nm. […]
Figure S1. […] After incubation for 60 min at 37°C, cells were centrifuged (3,500 rpm, 5 min) and the absorbance of the supernatant was measured at 540 nm. The value for “zero hemolysis” was determined using sterile saline (negative control, NC), while 100% hemolysis was established using 1% (v/v) Triton X-100 (PC: positive control). Hemolysis of testing sample was calculated as the percentage of Triton X-100-induced hemolysis. […] Cell viability was determined by adding 10 μl CCK8 in to the cells and incubated for 1-4 h. The absorbance at 450 nm of the solution was measured with a microplate reader. […]

Which results are given for RKYKEKKDKSQNKKKKRKCMIL [RK22]?
hemoglobin (HGB) (C57BL/6 mice; 20 and 40 mg/kg iv): did not induce any changes; histopathological analysis (H&E) of lung, liver, spleen and kidney (C57BL/6 mice; 20 and 40 mg/kg iv): no obvious tissue injury; platelets (C57BL/6 mice; 20 and 40 mg/kg iv): did not induce any changes; red blood cells (C57BL/6 mice; 20 and 40 mg/kg iv): did not induce any changes; white blood cells (C57BL/6 mice; 20 and 40 mg/kg iv): did not induce any changes; survival (C57BL/6 mice; single dose 20 mg/kg intravenously via the tail vein): did not result in any fatalities; survival (C57BL/6 mice; single dose 40 mg/kg intravenously via the tail vein): did not result in any fatalities; MIC (P. aeruginosa, ATCC9027): >100 µg/mL; cytotoxicity (HEK293T cells): did not demonstrate any noticeable cytotoxic effects
